In ChEMBL document CHEMBL5131424, “Synthesis and evaluation of antibacterial and trypanocidal activity of derivatives of monensin A” (Bioorg Med Chem Lett, 2022):
Values after ≈ are worked out from the molar mass of the structure shown.

What was measured:
[1] = test system: Staphylococcus aureus; experiment: Antibacterial activity against Staphylococcus aureus ATCC 6538; format: functional
[2] = test system: Pseudomonas aeruginosa; experiment: Antibacterial activity against Pseudomonas aeruginosa ATCC 15442; format: functional
[3] = Selectivity ratio of MIC for cytotoxicity against human HL-60 cells to MIC for antitrypanosomal activity against bloodstream form of Trypanosoma brucei clone 427-221a; format: toxicity, cell-based
[4] = test system: Staphylococcus epidermidis; experiment: Potency index, ratio of ciprofloxacin MIC to test compound MIC for antibacterial activity against Staphylococcus epidermidis 830/19; format: functional
[5] = test system: Pseudomonas aeruginosa; experiment: Antibacterial activity against Pseudomonas aeruginosa […]; format: functional
[6] = test system: Staphylococcus epidermidis; experiment: Antibacterial activity against Staphylococcus epidermidis 851/19; format: functional
[7] = Selectivity ratio of GI50 for cytotoxicity against human HL-60 cells to GI50 for antitrypanosomal activity against bloodstream form of Trypanosoma brucei clone 427-221a; format: toxicity, cell-based; details: read-out: RatioGI50
[8] = test system: HL-60; experiment: (§1) Cytotoxicity against human HL-60 cells assessed as reduction in cell viability measured after 24 hrs by resazurin dye based assay; format: toxicity; details: hl-60, 24 h
[9] = as §1; format: toxicity; details: HL-60 cells
[10] = test system: Staphylococcus epidermidis; experiment: Antibacterial activity against Staphylococcus epidermidis ATCC 12228; format: functional
[11] = test system: Staphylococcus epidermidis; experiment: Antibacterial activity against Staphylococcus epidermidis 825/19; format: functional
[12] = test system: Staphylococcus epidermidis; experiment: Potency index, ratio of ciprofloxacin MIC to test compound MIC for antibacterial activity against Staphylococcus epidermidis 845/19; format: functional
[13] = test system: Staphylococcus epidermidis; experiment: Antibacterial activity against Staphylococcus epidermidis 848/19; format: functional
[14] = test system: Staphylococcus epidermidis; experiment: Antibacterial activity against Staphylococcus epidermidis 834/19; format: functional
[15] = test system: Escherichia coli; experiment: Antibacterial activity against Escherichia coli ATCC 25922; format: functional
[16] = test system: Staphylococcus aureus; experiment: Antibacterial activity against Staphylococcus aureus NCTC 4163; format: functional
[17] = test system: Escherichia coli; experiment: Antibacterial activity against Escherichia coli NCTC 10538; format: functional
[18] = test system: Staphylococcus epidermidis; experiment: Antibacterial activity against Staphylococcus epidermidis 829/19; format: functional
[19] = test system: Staphylococcus epidermidis; experiment: Antibacterial activity against Staphylococcus epidermidis 840/19; format: functional
[20] = test system: Staphylococcus epidermidis; experiment: Antibacterial activity against Staphylococcus epidermidis 830/19; format: functional
[21] = test system: Staphylococcus aureus; experiment: Antibacterial activity against Staphylococcus aureus ATCC 25923; format: functional
[22] = test system: Trypanosoma brucei; experiment: Antitrypanosomal activity against bloodstream form of Trypanosoma brucei clone 427-221a measured after 24 hrs by resazurin dye based assay; format: functional
[23] = test system: Staphylococcus epidermidis; experiment: Antibacterial activity against Staphylococcus epidermidis ATCC 35984; format: functional
[24] = test system: Staphylococcus aureus; experiment: Antibacterial activity against Staphylococcus aureus ATCC 29213; format: functional
[25] = test system: Staphylococcus epidermidis; experiment: Potency index, ratio of ciprofloxacin MIC to test compound MIC for antibacterial activity against Staphylococcus epidermidis 825/19; format: functional
[26] = test system: Staphylococcus epidermidis; experiment: Antibacterial activity against Staphylococcus epidermidis 845/19; format: functional

| Compound | MIC [1] | MIC [2] | selectivity ratio [3] | MIC [5] | MIC [6] | selectivity ratio [7] | MIC [8] | GI50 at 24 h [9] | MIC [10] | MIC [11] | MIC [13] | MIC [14] | MIC [15] | MIC [16] | MIC [17] | MIC [18] | MIC [19] | MIC [20] | MIC [21] | GI50 [22] | other results |
| --- | --- | --- | --- | --- | --- | --- | --- | --- | --- | --- | --- | --- | --- | --- | --- | --- | --- | --- | --- | --- | --- |
| CO[C@H]([C@H](C)[C@H]1O[C@@]2(CC[C@@](C)([C@H]3CC[C@@](CO)([C@@H]4O[C@@H]([C@H]5O[C@@](O)(COC(=O)Nc6ccccc6)[C@H](C)C[C@@H]5C)C[C@@H]4C)O3)O2)C[C@H](O)[C@H]1C)[C@H](C)C(=O)O | 0.25 µg/mL (≈ 0.316 µM) | > 256 µg/mL | 100 | > 256 µg/mL | 0.5 µg/mL (≈ 0.631 µM) | 33.1 | 100 µM (≈ 79.2 µg/mL) | 8.94 µM | 0.25 µg/mL (≈ 0.316 µM) | 0.25 µg/mL (≈ 0.316 µM) | 0.5 µg/mL (≈ 0.631 µM) | 0.5 µg/mL (≈ 0.631 µM) | > 256 µg/mL | 0.25 µg/mL (≈ 0.316 µM) | > 256 µg/mL | 0.25 µg/mL (≈ 0.316 µM) | 0.5 µg/mL (≈ 0.631 µM) | 0.25 µg/mL (≈ 0.316 µM) | 0.25 µg/mL (≈ 0.316 µM) | 0.27 µM | Ratio [4]: <=256; Ratio [12]: <=256; MIC [22]: 1 µM (≈ 0.792 µg/mL); MIC [23]: 0.5 µg/mL (≈ 0.631 µM); MIC [24]: 0.25 µg/mL (≈ 0.316 µM); Ratio [25]: <=256; MIC [26]: 0.5 µg/mL (≈ 0.631 µM) |
| CCCCCCCCCC(=O)OC[C@]1(O)O[C@H]([C@H]2C[C@H](C)[C@H]([C@]3(CO)CC[C@H]([C@]4(C)CC[C@]5(C[C@H](O)[C@@H](C)[C@@H]([C@@H](C)[C@@H](OC)[C@H](C)C(=O)O)O5)O4)O3)O2)[C@@H](C)C[C@H]1C | 2 µg/mL (≈ 2.42 µM) | > 256 µg/mL | 100 | > 256 µg/mL | 2 µg/mL (≈ 2.42 µM) | 263 | 100 µM (≈ 82.7 µg/mL) | 10 µM | 2 µg/mL (≈ 2.42 µM) | 1 µg/mL (≈ 1.21 µM) | 2 µg/mL (≈ 2.42 µM) | 2 µg/mL (≈ 2.42 µM) | > 256 µg/mL | 2 µg/mL (≈ 2.42 µM) | > 256 µg/mL | 2 µg/mL (≈ 2.42 µM) | 2 µg/mL (≈ 2.42 µM) | 2 µg/mL (≈ 2.42 µM) | 1 µg/mL (≈ 1.21 µM) | 0.038 µM | MIC [22]: 1 µM (≈ 0.827 µg/mL); MIC [23]: 2 µg/mL (≈ 2.42 µM); MIC [24]: 2 µg/mL (≈ 2.42 µM); MIC [26]: 2 µg/mL (≈ 2.42 µM) |
